From the supplement of paper PMC13380429

Experiments:
Details in all cases: 72 h
Vero E6 [1] = test: cell viability relative to DMSO; higher = less toxic
U2OS [2] = test: as above
Caco-2 [3] = test: as above
HepG2 [4] = test: as above
Vero E6 [5] = test: drug sensitivity score (DSS) for viability; higher = more toxic; extreme values may be limits of the assay
U2OS [6] = test: as above
Caco-2 [7] = test: as above
HepG2 [8] = test: as above
U2OS [9] = test: relative viability EC50 (midpoint between 100% and the lowest measured viability); higher = less toxic
Caco-2 [10] = test: as above
Calu-3 [11] = test: cell viability relative to DMSO; higher = less toxic
Calu-3 [12] = test: drug sensitivity score (DSS) for viability; higher = more toxic; extreme values may be limits of the assay
Calu-3 [13] = test: relative viability EC50 (midpoint between 100% and the lowest measured viability); higher = less toxic
Vero E6 [14] = test: as above
HepG2 [15] = test: as above

| SMILES | cell viability (Vero E6 [1]; 1 nM) | cell viability (Vero E6 [1]; 10 nM) | cell viability (Vero E6 [1]; 100 nM) | cell viability (Vero E6 [1]; 1000 nM) | cell viability (Vero E6 [1]; 10000 nM) | cell viability (U2OS [2]; 1 nM) | cell viability (U2OS [2]; 10 nM) | cell viability (U2OS [2]; 100 nM) | cell viability (U2OS [2]; 1000 nM) | cell viability (U2OS [2]; 10000 nM) | cell viability (Caco-2 [3]; 1 nM) | cell viability (Caco-2 [3]; 10 nM) | cell viability (Caco-2 [3]; 100 nM) | cell viability (Caco-2 [3]; 1000 nM) | cell viability (Caco-2 [3]; 10000 nM) | cell viability (HepG2 [4]; 1 nM) | cell viability (HepG2 [4]; 10 nM) | cell viability (HepG2 [4]; 100 nM) | cell viability (HepG2 [4]; 1000 nM) | cell viability (HepG2 [4]; 10000 nM) | drug sensitivity score (Vero E6 [5]) | drug sensitivity score (U2OS [6]) | drug sensitivity score (Caco-2 [7]) | drug sensitivity score (HepG2 [8]) | relative viability EC50 (U2OS [9]) | relative viability EC50 (Caco-2 [10]) | cell viability (Calu-3 [11]; 1 nM) | cell viability (Calu-3 [11]; 10 nM) | cell viability (Calu-3 [11]; 100 nM) | cell viability (Calu-3 [11]; 1000 nM) | cell viability (Calu-3 [11]; 10000 nM) | drug sensitivity score (Calu-3 [12]) | relative viability EC50 (Calu-3 [13]) | relative viability EC50 (Vero E6 [14]) | relative viability EC50 (HepG2 [15]) |
| --- | --- | --- | --- | --- | --- | --- | --- | --- | --- | --- | --- | --- | --- | --- | --- | --- | --- | --- | --- | --- | --- | --- | --- | --- | --- | --- | --- | --- | --- | --- | --- | --- | --- | --- | --- |
| O=c1[nH]c([C@@H]2CCCN2)nc2c1oc1ccc(Cl)cc12 | 103% | 99.7% | 104% | 90.9% | 71.8% | 95% | 100% | 93.4% | 96.7% | 90.9% | 96.9% | 87% | 87.5% | 93.5% | 83.1% | 97% | 98.2% | 104% | 83.5% | 60.3% | 2.4 | 0 | 1.2 | 4.2 | > 10 µM | > 10 µM |  |  |  |  |  |  |  |  |  |
| OC[C@H]1O[C@@H](n2cnc3c(NC4CCCC4)nc(Cl)nc32)[C@H](O)[C@@H]1O [2-chloro-N6-cyclopentyladenosine] | 102% | 106% | 98.5% | 99.5% | 104% |  |  |  |  |  |  |  |  |  |  |  |  |  |  |  | 0 |  |  |  |  |  | 105% | 91.8% | 104% | 92.6% | 106% | 0 | > 10 µM | > 10 µM |  |
| O=C(/C=C/c1cccnc1)c1ccncc1 [3PO] | 107% | 112% | 100% | 111% | 87.7% | 101% | 99.7% | 100% | 99% | 82.5% | 103% | 97.1% | 99.7% | 92.3% | 77.3% | 103% | 102% | 93.2% | 112% | 72.7% | 0 | 0.5 | 1.8 | 0.7 | > 10 µM | > 10 µM |  |  |  |  |  |  |  | > 10 µM |  |
| CC(C)(O)CC[C@@H](O)[C@](C)(O)[C@H]1CC[C@@]2(O)C3=CC(=O)[C@@H]4C[C@@H](O)[C@@H](O)C[C@]4(C)[C@H]3CC[C@]12C [20-hydroxyecdysone] |  |  |  |  |  | 98% | 101% | 99.2% | 99.7% | 102% | 98.8% | 98.4% | 85.5% | 96.8% | 97.1% |  |  |  |  |  |  | 0 | 0 |  | > 10 µM | > 10 µM | 93.6% | 101% | 91% | 102% | 114% | 0 | > 10 µM |  |  |
| COc1cccc(C=NCCN=Cc2cccc(OC)c2[O-])c1[O-].[Cl-].[Mn+3] [EUK-134] | 98.4% | 102% | 99.3% | 105% | 96% | 101% | 96.6% | 107% | 99.3% | 99% | 94.7% | 89% | 91.5% | 92% | 85.6% | 95% | 109% | 99.5% | 101% | 72.3% | 0 | 0 | 0 | 1.1 | > 10 µM | > 10 µM | 110% | 87.9% | 102% | 94% | 99.3% | 0 | > 10 µM | > 10 µM |  |
| CC(C)(N)c1cc(C(=O)N[C@@H]2CCc3ccc(Oc4ccnc5c4CCC(=O)N5)cc3C2)cc(C(F)(F)F)c1 [ML786] | 106% | 105% | 112% | 99% | 33.5% | 101% | 98.6% | 100% | 82.4% | 9.6% | 108% | 92.7% | 104% | 90.8% | 68.5% | 99.2% | 110% | 62.4% | 31.1% | 6.8% | 3.8 | 7.9 | 2.7 | 17.5 | 1.76 µM |  |  |  |  |  |  |  |  | 3.06 µM | 0.221 µM |
| Cc1ccc(-c2nn(C(C)(C)C)c3ncnc(N)c23)cc1 [PP-1] | 107% | 104% | 103% | 105% | 48.7% | 100% | 94.8% | 104% | 90.9% | 55% | 102% | 96.2% | 103% | 91.5% | 59.7% | 106% | 91.8% | 92.8% | 89.3% | 69% | 2.3 | 3.8 | 3.4 | 2.3 |  |  | 85.9% | 96.9% | 94% | 91.2% | 43.9% | 4.5 | 1.94 µM | 3.66 µM |  |
| CC(C)=CCc1c(O)cc(O)c2c(=O)c(O)c(-c3ccc(C(F)(F)F)cc3)oc12 [SNG-1153] | 100% | 94.3% | 100% | 93% | 50.7% | 96.7% | 94.7% | 94.5% | 99.9% | 43.2% | 92.1% | 93.8% | 98.1% | 95.8% | 40% | 97.3% | 98.8% | 106% | 103% | 40.2% | 3.8 | 3.1 | 3.9 | 3 | 3.14 µM | 2.6 µM | 114% | 89.6% | 108% | 99.3% | 68.1% | 1.5 |  |  | 3.43 µM |
